Experimental findings from PMC10498452, “Targeted Protein Degradation: Advances, Challenges, and Prospects for Computational Methods” (Journal of Chemical Information and Modeling, 2023) are described below.

What is called DC50 is the concentration at which degradation of the target reaches its halfway point. High values mean a less potent degrader, low ones a more potent degrader. For orientation: Dmax means the greatest extent of degradation seen. High values mean deep degradation, low ones shallow degradation.

Experiment [1] concerns the target SMARCA2-VHL ternary complex (Homo sapiens, UniProt P40337+P51531). The experiment can be described thus: AlphaLISA assay measuring ternary complex formation. The class given is binding. An excerpt: Competitive-binding and proximity-based assays can also probe the degree of degrader–POI engagement or ternary complex formation (Table 1), thus allowing the determination of binding affinities and cooperativity. These techniques measure changes in the polarization of a fluorescently labeled target protein upon binding to a degrader, as in fluorescence polarization (FP),[85] or detect intensity changes, upon ternary complex formation, in the fluorescence or luminescence signal emitted from beads tagged to the POI or E3 ligase, as in time-resolved Förster resonance energy-transfer (TR-FRET)[86] or in the amplified luminescent proximity homogeneous assay (ALPHA).[87] In the proximity ligation assay (PLA), a technology that is gaining popularity in TPD research, the signal is even further amplified through antibody-attached oligonucleotide hybridization.[88] These methods have been used in TPD studies for the identification of selective degraders and for the high-throughput screening of degrader designs.[39]−[41],[89] In particular, ALPHA has a high dynamic range and signal-to-noise ratio and, when applied in a titration experiment (usually set up as an immunoassay called AlphaLISA), it yields relative populations of ternary complexes as a function of degrader concentration and is routinely employed as a tool in degrader design projects (see Section 4.2). […]
On the technique in general: Bead proximity is the source of the signal in Alpha formats.

The target in experiment [2] is T1, SMARCA2 (Homo sapiens, UniProt P51531).
T1 construct: luminescence-based reporter assays with endogeneous HiBiT-tagged proteins have been developed that yield degradation profiles; endogenous in cells
Briefly: HiBiT assay, degradation profiles. The class given is cell-based. The following applies: VHL-recruiting degrader. An excerpt: To monitor the intracellular degradation, luminescence-based reporter assays with endogeneous HiBiT-tagged proteins have been developed that yield degradation profiles, from which maximum degradation levels (Dmax) as well as the half-maximum degradation concentration (DC50) can be derived to estimate the potency of a degrader molecule,[48] which is instrumental in degrader design (see Section 4.2). As a matter of fact, variants of this technology are applied to characterize the different steps in TPD, such as target engagement, ternary complex formation, and target ubiquitination,[115] providing complementary kinetic information to the other experimental approaches discussed.
Figure 6 lists all of our designs in this study (Linkers 1–6) along with ACBI1, a previously optimized VHL-recruiting degrader of SMARCA2.[28] Informed by the random forest classifier, which was trained and validated on about 100 known compounds (model accuracy of 83%), the designs generally involve rigid linkers that contain (aromatic) ring structures with low molecular weight. […] By contrast, 34 designs that incorporated typical alkyl and PEG linkers spanning 4 to ∼20 atoms as well as known linker moieties, such as triazoles and phenyl rings (o, m, or p-substituted to provide different geometries), only produced two active degraders.
Figure 7 Experimental confirmation of degrader designs. […]
(In general: HiBiT is a short tag that completes a luciferase, so light tracks the accessible tagged protein.)

T1 sequence (P51531 whole entry): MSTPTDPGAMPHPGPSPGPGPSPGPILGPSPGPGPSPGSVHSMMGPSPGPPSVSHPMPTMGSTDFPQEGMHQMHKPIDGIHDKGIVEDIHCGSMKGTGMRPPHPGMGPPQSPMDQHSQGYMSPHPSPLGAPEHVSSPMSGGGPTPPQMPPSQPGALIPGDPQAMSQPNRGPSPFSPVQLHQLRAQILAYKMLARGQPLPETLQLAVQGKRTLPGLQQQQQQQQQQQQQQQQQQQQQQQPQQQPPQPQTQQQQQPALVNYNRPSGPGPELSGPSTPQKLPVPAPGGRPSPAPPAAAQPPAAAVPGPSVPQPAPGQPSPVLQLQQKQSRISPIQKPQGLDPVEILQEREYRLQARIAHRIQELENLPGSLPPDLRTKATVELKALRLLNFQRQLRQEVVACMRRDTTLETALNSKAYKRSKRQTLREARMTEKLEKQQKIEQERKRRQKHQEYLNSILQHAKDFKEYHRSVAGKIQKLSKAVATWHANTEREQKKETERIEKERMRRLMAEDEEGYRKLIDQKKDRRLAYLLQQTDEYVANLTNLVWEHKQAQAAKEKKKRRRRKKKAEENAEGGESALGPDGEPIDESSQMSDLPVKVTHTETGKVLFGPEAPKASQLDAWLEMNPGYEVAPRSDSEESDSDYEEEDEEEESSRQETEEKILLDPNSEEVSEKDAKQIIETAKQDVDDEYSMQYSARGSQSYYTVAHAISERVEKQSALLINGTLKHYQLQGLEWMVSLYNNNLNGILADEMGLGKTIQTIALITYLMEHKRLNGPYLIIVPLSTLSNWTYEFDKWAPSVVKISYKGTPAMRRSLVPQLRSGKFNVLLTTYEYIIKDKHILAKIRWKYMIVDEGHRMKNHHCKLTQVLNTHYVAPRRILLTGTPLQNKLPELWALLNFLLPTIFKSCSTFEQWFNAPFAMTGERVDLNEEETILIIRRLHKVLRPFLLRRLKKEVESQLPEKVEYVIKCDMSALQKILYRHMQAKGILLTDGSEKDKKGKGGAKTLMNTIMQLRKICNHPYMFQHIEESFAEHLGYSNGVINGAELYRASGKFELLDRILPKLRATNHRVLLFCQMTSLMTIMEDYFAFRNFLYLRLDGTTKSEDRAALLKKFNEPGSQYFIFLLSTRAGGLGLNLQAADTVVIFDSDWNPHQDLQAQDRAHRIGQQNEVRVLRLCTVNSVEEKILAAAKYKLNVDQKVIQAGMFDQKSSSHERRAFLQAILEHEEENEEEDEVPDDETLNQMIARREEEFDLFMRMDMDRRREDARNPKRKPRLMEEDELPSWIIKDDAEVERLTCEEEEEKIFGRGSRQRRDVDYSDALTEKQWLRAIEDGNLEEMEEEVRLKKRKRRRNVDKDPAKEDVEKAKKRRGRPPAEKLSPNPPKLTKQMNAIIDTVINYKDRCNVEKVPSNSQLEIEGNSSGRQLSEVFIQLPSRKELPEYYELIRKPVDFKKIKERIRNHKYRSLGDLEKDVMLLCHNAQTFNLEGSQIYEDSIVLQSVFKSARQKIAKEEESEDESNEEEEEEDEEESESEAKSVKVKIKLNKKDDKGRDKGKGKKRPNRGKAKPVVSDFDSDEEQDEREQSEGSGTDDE
Sequence of SMARCA2-VHL ternary complex (P51531 1373-1511 limits assumed): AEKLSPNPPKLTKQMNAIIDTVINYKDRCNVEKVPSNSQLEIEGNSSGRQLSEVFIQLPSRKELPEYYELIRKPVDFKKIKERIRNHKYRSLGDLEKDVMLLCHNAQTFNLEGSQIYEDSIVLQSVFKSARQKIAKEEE
Sequence of SMARCA2-VHL ternary complex (P40337 54-213 limits assumed): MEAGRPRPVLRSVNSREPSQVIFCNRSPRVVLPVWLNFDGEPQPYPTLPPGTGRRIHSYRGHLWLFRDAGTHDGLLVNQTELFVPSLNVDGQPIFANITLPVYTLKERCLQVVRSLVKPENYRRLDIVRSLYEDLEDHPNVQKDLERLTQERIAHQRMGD
Sequence of SMARCA2-VHL ternary complex (Q15369 17-112 partner limits assumed): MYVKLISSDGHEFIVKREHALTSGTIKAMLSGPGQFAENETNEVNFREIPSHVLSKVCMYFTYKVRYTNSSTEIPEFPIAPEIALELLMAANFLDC
Sequence of SMARCA2-VHL ternary complex (Q15370 1-104 partner limits assumed): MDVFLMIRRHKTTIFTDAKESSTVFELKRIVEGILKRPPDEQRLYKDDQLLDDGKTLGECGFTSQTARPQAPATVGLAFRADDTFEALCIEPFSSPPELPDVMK

For `Cc1ncsc1-c1ccc(CNC(=O)[C@@H]2C[C@@H](O)CN2C(=O)[C@@H](NC(=O)C2(F)CC2)C(C)(C)C)c(OCCOc2ccc(CN3CCN(c4cc(-c5ccccc5O)nnc4N)CC3)cc2)c1` [ACBI1], the “AlphaLISA (% of control)” value in experiment [1] is 100 % of control. Also, in experiment [2], the DC50 turned out to be 37 nM and the Dmax was 94%.
